According to patent publication US20250332298A1, “PEPTIDE-COUPLED ALGINATE GELS COMPRISING RADIONUCLIDES” (BLUE WAVE THERAPEUTICS GMBH, priority 2021, published 2025):
“And” between values parts separate entries of the source, which are not always exact repeats. Equal entries are not always repeated.

What was measured:
[1] = Binding efficiency of thorium-227 and its decay daughters to preformed alginate microspheres (calcium cross-linked); format: physicochemical; conditions: for Bound at 1 h, Bq: 227Th4+ solution in NaCl; for Bound at 1 h, Bq / Bound at 1 h, %: 1 h incubation; for Bound at 2 h, Bq / Bound at 2 h, %: 2 h incubation; for Bound at 1 h, % / Bound at 2 h, %: % of available radioactivity
Experimental: In this Experiment, binding of a tetravalent radionuclide cation to alginate microspheres was studied.
Calcium crosslinked, inhomogeneous gelled alginate microspheres were made in the same manner as shown in Example 5 above. The microspheres were washed three times using 0.9% NaCl solution, resuspended in 0.8% NaCl and incubated with a solution of ^227Th^4+. Of the available amount of radioactivity, approximately 30% bound to the pre-formed alginate microspheres (Table 3).

[2] = Binding of radium-224 and decay daughters to calcium alginate microparticles and retention over 12 days; conditions: for Day 0 particles directly after labelling, radioactivity: 30 mg microparticles, 30 min room temperature, washed, HPGe; for Day 1 radioactivity associated with particles: 24 hours after labelling; for Day 1 radioactivity associated with particles / Day 12 radioactivity associated with particles: room temperature, after washing with water; for Day 12 radioactivity associated with particles: 12 days after labelling; for Day 0 % bound radioactivity relative to available radioactivity: directly after labelling
Experimental: Calcium alginate was produced via the conversion of sodium alginate powder suspended in isopropyl alcohol by adding an aqueous solution of calcium chloride as exemplified in US 2011/0053886 incorporated herein.
A 30 mg sample of calcium alginate microparticles, having an average size distribution (DV50) of 13 μm, was resuspended first in 200 μl water, then 150 μl radium-224 solution was added followed by an additional 150 μl of water. The sample was vortex mixed then incubated at room temperature for 30 min. An aliquot of 500 μl water was added to the particle suspension. The sample was vortex mixed then centrifuged for 1 min at 6000 rpm. The supernatant was transferred to another Eppendorf tube labelled Wash 1. The particle sample was then resuspended in 1000 μl water, vortexed, then centrifuged. The supernatant was transferred to an Eppendorf tube labelled Wash 2. The wash with 1000 μl water was repeated and the supernatant collected to tube Wash 3. Samples were then analysed for radioactivity using a high purity germanium detector.
The sample was kept at room temperature and analysed again at day 1 (24 hours after labelling) and 12 days after labelling. Radioactivity was determined after first washing the particles with water.
This solution represents the available radioactivity, and radionuclides, added to calcium alginate microparticles. Following incubation and a wash to remove unbound radioactivity, the radioactivity associated with the alginate microparticles was again measured respective to each decay daughter radionuclide. The % bound radioactivity relative to the available radioactivity was calculated.
When the particles were washed on day 1 after labelling, and radioactivity determined (HPGe detector), in addition, the amount of 224-Ra radioactivity theoretically remaining associated with the alginate microparticles was calculated using an available radioactive decay calculator (http://www.radprocalculator.com).

Row | SMILES | Bound at 1 h, Bq [1] | Bound at 2 h, Bq [1] | Bound at 1 h, % [1] | Bound at 2 h, % [1] | Day 0 particles directly after labelling, radioactivity [2] | Day 1 radioactivity associated with particles [2] | Day 12 radioactivity associated with particles [2] | Day 0 % bound radioactivity relative to available radioactivity [2] | also measured
1 | [211Bi] [Bismuth-211] | 10067 Bq | 11154 Bq | 90.2% | 99.9% |  |  |  |  | Bound at 1 h, % ([1]; listed as 211Bi): 100%; Bound at 1 h, % ([1]; listed as bismuth): 100%
2 | [212Pb] [Formulation 212-Pb, lead-212] |  |  |  |  | 8370 Bq | 7840 Bq | 1040 Bq |  | 
3 | [212Bi] [Formulation 212-Bi, bismuth 212] |  |  |  |  | 7640 Bq | 7650 Bq | 910 Bq | 83.6% | 
4 | [227Th] [Thorium-227] | 24679 Bq | 30647 Bq | 30.4% | 37.7% |  |  |  |  | Bound at 1 h, % ([1]; listed as 227Th): approximately 30%; Bound at 1 h, % ([1]; listed as thorium-227): approximately 30%
5 | [223Ra] [Radium-223] | 10512 Bq | 11201 Bq | 111.5% | 118.8% |  |  |  |  | Bound at 1 h, % ([1]; listed as 223Ra): 100%; Bound at 1 h, % ([1]; listed as radium): 100%
6 | [224Ra] [Formulation 224-Ra, radium-224] |  |  |  |  | 8720 Bq and 8740 Bq | 7270 Bq | 913 Bq | 94.9% | Day 1 % radioactivity remaining bound relative to theoretical radioactivity following decay ([2]; Day 1): 100%; Day 12 % radioactivity remaining bound relative to theoretical radioactivity following decay ([2]; Day 12): 100% and 101%
